Like-named read-outs stand apart in the source and are kept apart here.
Experiments:
[1] = tested on: Escherichia coli (ATCC 8739); test: MBC determination with polymyxin B nonapeptide (PMBN); assay type: cell-based; details: ATCC8739, in presence of 40 μg/ml PMBN, read-out: Minimal Bactericidal Concentration (MBC)
Description: The MBC represents the lowest concentration of drug required to kill the bacteria in a liquid culture.
The Minimal Bactericidal Concentration (MBC) of Triafluocyl in presence of 40 μg/ml PMBN against Escherichia coli (ATCC 8739) is equal to 5 μg/ml (FIG. 11B).
The Minimal Bactericidal Concentration (MBC) of Fluometacyl in presence of 40 μg/ml PMBN against Escherichia coli (ATCC 8739) is equal to 5 μg/ml (FIG. 12B).

[2] = tested on: E. faecalis vancomycin-resistant (VRE) ATCC BAA-2365; test: MBC and MDK99.9 determination (CFU counting); assay type: cell-based, Enterococcus faecalis; details: for MBC: Enterococcus faecalis, cut-off 99.9% reduction in CFU
Description: Further experiments were conducted using different strains of E. faecalis, as clinically relevant Gram-positive bacterial strains: E. faecalis vancomycin-resistant (VRE) ATCC BAA-2365, and E. faecalis ATCC 29212 in order to determine the Minimal Inhibitory Concentration (MIC) which is the minimal concentration required to prevent bacterial growth; the Minimal Bactericidal Concentration (MBC) which determines the lowest concentration at which an antimicrobial agent kill a particular microorganism and a Minimum Duration for killing 99.9% bacteria (MDK99.9) which is a tolerance metric according to the EUCAST.
MBC and MDK99.9 determination: A single colony selected from the different strains of E. faecalis is resuspended and cultured in the appropriate medium (TSB, or BHI) overnight (O/N) in aerobic conditions (37° C. with 220 rpm shaking), next day a 1:100 inoculum in the appropriate medium was incubated in aerobic conditions for 2 h. The culture is then challenged with triafluocyl at MIC concentration or higher concentrations. Bacterial growth was measured after different time intervals by counting the colony-forming units after plating appropriate culture dilutions on BHI agar plates. […] And the real time needed is defined as the MDK99.9. MBC for Triafluocyl against E. faecalis vancomycin-resistant (VRE) ATCC BAA-2365 was 20 μg/ml. MDK99.9 for Triafluocyl against E. faecalis vancomycin-resistant (VRE) ATCC BAA-2365 was 24 hours.
(§1) For MBC determination a 1:100 inoculum of an O/N culture (prepared like before) was incubated in aerobic conditions for 2 h in bacteria-specific medium. The culture was then challenged with Fluometacyl at the MIC concentration or higher. Bacterial growth was measured after different time intervals by counting the colony-forming units (CFU) after plating appropriate culture dilutions on bacteria-specific medium agar plates.

[3] = tested on: Staphylococcus epidermidis (ATCC 35984, also known as RP62A); test: MBC and MDK99.9 determination; assay type: cell-based
Description: The Minimal Inhibitory Concentration (MIC) and the Minimal Bactericidal Concentration (MBC) of Triafluocyl were determined in Staphylococcus epidermidis (ATCC 35984, also known as RP62A) according to EUCAST (European Committee on Antimicrobial Susceptibility Testing) recommendations.
We have also determined the MBC, i.e. the concentration at which the liquid culture, when spread on TSA plates, will not produce any colony.
The Minimum Duration for killing 99.9% S. epidermidis (MDK99.9) by Triafluocyl, a tolerance metric according to the EUCAST, was 2 hours.
as §1

[4] = tested on: S. aureus (ATCC 25904) biofilm; test: Biofilm formation on polystyrene (crystal violet); assay type: cell-based, Staphylococcus aureus; details: 20 hours
Description: (§2) S. aureus (ATCC 25904) was grown overnight in TSB medium, before being diluted 100 fold in fresh TSB, and incubated aerobically at 37° C. until bacteria culture reached an OD600 of 0.6 (corresponding to approximately 1-3×10^8 CFU/ml). Bacteria cultures were then diluted to 1×10^4 CFU/ml in fresh TSB. 800 μl aliquots of diluted bacteria suspensions were distributed in each well of a 24-well plate. Bacteria were allowed to adhere for 4 hours under static conditions at 37° C. After removing media, wells were rinsed 2 times with PBS to eliminate planktonic bacteria and re-filled with TSB supplemented with 0.5% glucose
Triafluocyl or DMSO as vehicle was then added at desired concentration and plates were incubated at 37° C. for 20 hours. After incubation, wells were washed and stained with 0.5% (w/v) crystal violet for 30 minutes, washed again and the dye was solubilized by adding 20% acetic acid (v/v in water) before reading absorbance at 595 nm.
S. aureus biofilms were formed on polystyrene surface in the presence of increasing concentrations of Triafluocyl or DMSO as vehicle. In FIG. 2, Biofilm mass is presented as percentage of values obtained in the presence of DMSO (*P<0.05; **P<0.01; ***P<0.001, Triafluocyl versus DMSO, n=4).
as §2, with “Staphyloccocus” for “S.”, “or Staphyloccocus epidermidis (ATCC 35984) were” for “was”, “TSB. Aliquots of” for “TSB.”, “μl” for “μl aliquots of”, “removing the” for “removing”, “glucose containing Fluometacyl at desired concentration or DMSO alone (Ctrl). […] The dye was solubilized by adding 20% acetic acid (v/v in water) before reading absorbance at 595 nm. […]” for “glucose”

[5] = tested on: Escherichia coli (ATCC 8739); test: MBC determination with C12(ω7)Kβ12 (OAK); assay type: cell-based; details: ATCC8739, in presence of 5 μg/ml OAK, read-out: Minimal Bactericidal Concentration (MBC)
Description: Viable count in the liquid culture is estimated by counting the colony forming units (c.f.u.) on a Luria-Bertani (LB) agar plate—after 24 h incubation at 37° C.—and calculating the c.f.u. per milliliter of the liquid culture (c.f.u./ml).
The Minimal Bactericidal Concentration (MBC) of Triafluocyl in presence of 5 μg/ml OAK against Escherichia coli (ATCC 8739) is equal to 10 μg/ml (FIG. 13B).
The Minimal Bactericidal Concentration (MBC) of Fluometacyl in presence of 5 μg/ml OAK against Escherichia coli (ATCC 8739) is equal to 5 μg/ml (FIG. 14B).

Compound | MBC [1] | MBC [2] | MBC ([3]; Staphylococcus epidermidis, ATCC35984, S. epidermidis, cut-off 99.9% reduction in CFU, read-out: MBC) | S. aureus biofilm formation ([4]; 38 μM, FIG. 10A) | MBC [5] | MDK 99.9 Time (h) needed to kill 99.9% of the started inoculum [2] | MBC ([3]; S. epidermidis) | MDK 99.9 Time (h) needed to kill 99.9% of the started inoculum ([3]; S. epidermidis) | MBC ([3]; Staphylococcus epidermidis, ATCC35984, S. epidermidis, read-out: MBC) | S. aureus biofilm formation ([4]; 10 μg/ml, polystyrene surface) | S. aureus biofilm formation ([4]; all concentrations tested, versus DMSO)
CCCSc1nc(N[C@@H]2C[C@H]2c2ccc(F)c(F)c2)c2nnn([C@@H]3C[C@H](O)[C@@H](O)[C@H]3O)c2n1 [Fluometacyl, (1S,2R,3S,4R)-4-[7-[[(1R,2S)-2-(3,4-Difluorophenyl)cyclopropyl]amino]-5-(propylthio)-3H-1,2,3-triazolo[4,5-d]pyrimidin-3-yl]-1,2,3-cyclopentanetriol] | 5 µg/mL | 38 µM | 38 µM | could not form any biofilm | 5 µg/mL |  |  |  |  |  | 
CCCSc1nc(N[C@@H]2C[C@H]2c2ccc(F)c(F)c2)c2nnn([C@@H]3C[C@H](OCCO)[C@@H](O)[C@H]3O)c2n1 [Triafluocyl, (1S,2S,3R,5S)-3-[7-[(1R,2S)-2-(3,4-difluorophenyl)cyclopropylamino]-5-(propylthio)-3H-[1,2,3]-triazolo[4,5-d]pyrimidin-3-yl]-5-(2-hydroxyethoxy)-1,2-cyclopentanediol] | 5 µg/mL | 20 µg/mL |  |  | 10 µg/mL | 24 h | 20 µg/mL | 2 h | 17 ± 3 µg/mL | no biofilm could form | significantly reduces
